Source: US11884649B2, “IRE1α inhibitors and uses thereof” (The Regents of the University of California, priority 2020, dated 2024)
pIC50, pKi: −log10 of the molar value.

Key:
[1] = test system: INS-1 cells expressing IRE1α under Dox control; experiment: RNA-Seq profiling of INS-1 cells conditionally overexpressing IRE1α; format: cell-based, rat; conditions: 20 μM, 5 ng/mL Dox
Description: Next, to systematically compare the transcriptomic effects of PAIR1 and KIRA9, we profiled INS-1 cells that conditionally overexpress IRE1α by RNA Seq. As above (FIGS. 4A-4K), IRE1α overexpression was induced with doxycycline (Dox) and cells were treated with either DMSO, or equivalent concentrations of PAIR1 or KIRA9. Total RNA was submitted for sequencing across entire transcripts. The dense coverage of this dataset enabled us to distinguish the endogenous rat IRE1α expression from the induced mouse IRE1α transgene; there was greater than 10-fold induction of transgene expression with doxycycline (FIG. 22). Dense coverage across the Xbp1 locus also enabled quantification of XBP1 splicing based on the reduced density of reads mapping to the noncanonical XBP1 intron. Consistent with measurements of XBP1 splicing by isoform-specific PCR (FIG. 4C), overexpression induced XBP1 splicing was preserved in both DMSO and PAIR1-treated cells, but blocked in KIRA9-treated cells at 4 hours (FIGS. 23A-23B).
RNA Isolation and Preparation
Isogenic IRE1α-overexpressing INS-1 cells were pre-treated with inhibitors for 1 h followed by addition of Dox 5 ng/mL for 4 h and 24 h as indicated. All conditions for RNAseq analysis were performed in three biological replicates. RNA was isolated from whole cells using Qiagen RNeasy with gDNA eliminator kit. RNA purity was determined using a NanaPhotometer spectrometer (IMPLEN, CA, USA). RNA integrity and quantitation were assessed using the RNA Nano 6000 Assay Kit of the Bioanalyzer 2100 system (Agilent Technologies, CA, USA).
Quantification of Gene Expression Level
HTSeq v0.6.1 was used to count the reads numbers mapped to each gene. And then FPKM of each gene was calculated based on the length of the gene and reads count mapped to this gene.
Differential Expression Analysis
Differential expression analysis of two conditions/groups (three biological replicates per condition) was performed using the DESeq R package (1.18.0). DESeq provide statistical routines for determining differential expression in digital gene expression data using a model based on the negative binomial distribution. The resulting P-values were adjusted using the Benjamini and Hochberg's approach for controlling the false discovery rate. Genes with an adjusted P-value<0.05 found by DESeq were assigned as differentially expressed.

IRE1α [2] = target: T1, IRE1α (Rattus norvegicus, UniProt A0A4Y1YQ52); experiment: ER stress-mediated IRE1α autophosphorylation by Phos-tag SDS-PAGE in INS-1 cells (Brefeldin-A); format: cell-based; conditions: various concentrations, 200 ng/μL Brefeldin-A (BFA) for 2 hours
T1 construct: endogenous in cells; host or cells: INS-1 rat insulinoma beta cells
T1 sequence (A0A4Y1YQ52 21-977): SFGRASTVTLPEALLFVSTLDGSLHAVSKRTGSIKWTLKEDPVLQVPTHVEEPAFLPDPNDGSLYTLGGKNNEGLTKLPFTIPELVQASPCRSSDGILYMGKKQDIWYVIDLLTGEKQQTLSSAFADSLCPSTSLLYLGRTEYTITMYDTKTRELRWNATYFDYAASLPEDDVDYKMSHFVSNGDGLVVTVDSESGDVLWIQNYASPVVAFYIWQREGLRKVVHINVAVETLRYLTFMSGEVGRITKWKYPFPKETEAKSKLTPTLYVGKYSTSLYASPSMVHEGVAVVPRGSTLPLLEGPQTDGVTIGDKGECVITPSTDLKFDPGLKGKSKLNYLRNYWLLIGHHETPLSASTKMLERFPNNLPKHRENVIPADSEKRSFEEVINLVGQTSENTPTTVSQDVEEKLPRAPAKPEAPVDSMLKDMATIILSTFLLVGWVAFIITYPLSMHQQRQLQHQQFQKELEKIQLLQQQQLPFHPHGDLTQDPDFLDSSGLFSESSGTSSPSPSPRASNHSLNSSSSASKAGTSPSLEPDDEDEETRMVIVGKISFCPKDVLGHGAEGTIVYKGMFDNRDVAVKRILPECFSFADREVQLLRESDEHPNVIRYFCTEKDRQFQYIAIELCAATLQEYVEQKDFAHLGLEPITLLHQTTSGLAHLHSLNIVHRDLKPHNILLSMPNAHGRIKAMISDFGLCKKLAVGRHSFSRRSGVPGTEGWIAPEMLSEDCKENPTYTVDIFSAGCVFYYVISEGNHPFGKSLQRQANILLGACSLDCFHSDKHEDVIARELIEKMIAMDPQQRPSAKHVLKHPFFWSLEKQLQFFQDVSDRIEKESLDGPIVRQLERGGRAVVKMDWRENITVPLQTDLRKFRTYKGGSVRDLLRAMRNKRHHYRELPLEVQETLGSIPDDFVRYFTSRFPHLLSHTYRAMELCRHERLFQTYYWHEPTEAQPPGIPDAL
Description: FIG. 21. […] Immunoblots for total IRE1α (bottom) from INS-1 cells treated with various concentrations of PAIR1 or KIRA9 followed by the addition of 200 ng/μL Brefeldin-A (BFA) for 2 hours. Samples were subjected to Phos-tag SDS-PAGE and % autophosphorylated IRE1α (top) was determined from the ratio of phosphorylated IRE1α relative to total IRE1α. Values shown are mean±SEM (n=3).
(§1) Treatment Conditions for Phostag Gels
(§2) INS-1 or IRE1α-overexpressing isogenic INS-1 cells were plated onto a 24-well Poly-D-Lysine coated tissue culture plate and grown for 48 hrs. Inhibitor or DMSO were added to the media and incubated for 1 hour at 37° C. with 5% CO2 prior to addition of ER stress agents. […] Cells were lysed directly into SDS loading buffer (50 mM Tris, 100 mM DTT, 2% SDS (w/v), 10% glycerol (v/v), and 0.1% bromophenol blue (w/v), pH 6.8) and boiled for five minutes prior to gel loading.
(§3) Phostag Acrylamide Gel Procedure
(§4) A phostag acrylamide gel recipe used to resolve phosphorylation of IRE1α has been previously established and this recipe was followed verbatim for this study.^91 Resolving gels were allowed to solidify (˜1.5 hr) before adding the stacking gel and comb and allowed to solidify (˜1 hr). Gels were run using Tris-Glycine-SDS running buffer (25 mM Tris, 192 mM glycine, 0.1% SDS, pH 8.3) at 100 V for 3-3.5 hours. […]

IRE1α* = target: T2, IRE1α* (Homo sapiens, UniProt O75460); experiment: In vitro kinase activity assay (IRE1α kinase inhibition); format: biochemical
T2 construct: human IRE1α (residues 547-977, IRE1α*) was expressed in SF9 insect cells; His6 (N); made in house; host or cells: Sf9 insect cells (Bac-to-Bac baculovirus)
T2 sequence (O75460 547-977): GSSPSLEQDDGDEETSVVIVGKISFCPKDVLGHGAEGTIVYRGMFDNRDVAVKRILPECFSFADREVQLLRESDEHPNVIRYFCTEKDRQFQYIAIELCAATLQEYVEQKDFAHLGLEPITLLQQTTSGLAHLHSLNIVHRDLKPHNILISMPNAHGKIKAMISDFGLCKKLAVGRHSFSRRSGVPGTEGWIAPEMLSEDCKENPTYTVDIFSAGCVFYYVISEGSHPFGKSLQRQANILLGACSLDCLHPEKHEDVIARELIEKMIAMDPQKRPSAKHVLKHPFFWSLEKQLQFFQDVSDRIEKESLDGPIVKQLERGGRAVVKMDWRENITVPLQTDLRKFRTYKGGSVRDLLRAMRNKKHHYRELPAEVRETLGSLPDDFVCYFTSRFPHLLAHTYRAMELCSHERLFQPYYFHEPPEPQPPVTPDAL
In short: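 His6-tagged human IRE1α cytosolic kinase/RNase domains (residues 547-977) from SF9 cells, preincubated 30 min with inhibitor (top 10 or 60 μM, three-fold dilutions) in pH 7.5 HEPES/MgCl2 buffer, then 10 μCi [γ-32P]ATP, 23 °C, 3 h. Filter-spot autoradiography; inhibition normalised to no-kinase and DMSO wells; IC50 from one-site fit.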

IRE1α [3] = target: T3, IRE1α (Mus musculus, UniProt Q9EQY0); experiment: IRE1α autophosphorylation by Phos-tag SDS-PAGE in INS-1 cells expressing IRE1α under Dox control; format: cell-based, rat; conditions: various concentrations, 5 ng/mL Dox
T3 construct: expressed in transfected cells
T3 sequence (Q9EQY0 21-977): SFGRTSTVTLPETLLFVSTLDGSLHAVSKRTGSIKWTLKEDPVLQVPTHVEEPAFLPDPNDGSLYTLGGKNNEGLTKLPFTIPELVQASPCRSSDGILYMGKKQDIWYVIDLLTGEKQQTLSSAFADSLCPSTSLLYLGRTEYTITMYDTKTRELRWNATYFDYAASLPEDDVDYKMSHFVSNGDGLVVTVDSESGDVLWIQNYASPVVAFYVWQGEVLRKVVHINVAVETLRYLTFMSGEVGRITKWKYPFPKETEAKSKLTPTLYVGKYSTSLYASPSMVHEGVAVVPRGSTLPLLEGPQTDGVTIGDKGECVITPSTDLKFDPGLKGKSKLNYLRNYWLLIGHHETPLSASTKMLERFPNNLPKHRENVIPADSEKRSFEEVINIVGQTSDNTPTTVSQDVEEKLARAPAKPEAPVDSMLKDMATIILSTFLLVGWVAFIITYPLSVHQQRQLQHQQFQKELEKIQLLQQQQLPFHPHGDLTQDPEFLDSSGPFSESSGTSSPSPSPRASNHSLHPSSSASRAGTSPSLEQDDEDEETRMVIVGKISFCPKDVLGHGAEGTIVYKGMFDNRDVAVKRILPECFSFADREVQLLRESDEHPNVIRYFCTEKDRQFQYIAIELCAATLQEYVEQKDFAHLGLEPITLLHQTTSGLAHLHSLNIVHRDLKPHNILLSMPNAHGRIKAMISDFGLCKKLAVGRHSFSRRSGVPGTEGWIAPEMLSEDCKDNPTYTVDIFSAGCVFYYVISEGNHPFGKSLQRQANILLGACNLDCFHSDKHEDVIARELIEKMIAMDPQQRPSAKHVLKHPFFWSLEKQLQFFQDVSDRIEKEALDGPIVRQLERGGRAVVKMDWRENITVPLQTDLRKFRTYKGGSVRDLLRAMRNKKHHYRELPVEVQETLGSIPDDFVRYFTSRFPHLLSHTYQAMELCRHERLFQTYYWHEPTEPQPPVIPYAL
Description: We next tested PAIR1 and KIRA9 in an INS-1 rat insulinoma stable cell line where IRE1α activation can be achieved through conditional overexpression of a mouse IRE1α transgene (Han et al., 2009).
as §1, §2, §3
as §4, with “hours. After the gels have ran, they were transferred onto nitrocellulose paper via rapid transfer using a Transblot Turbo and premade transfer packs. Gels were transferred at 25 V, 2.5 A for 15 minutes.” for “hours.”

Compound | TXNIP upregulation [1] | downregulation of RIDD genes [1] | global decrease of secretome transcripts [1] | upregulation of apoptosis genes [1] | XBP1 splicing (read coverage) ([1]; 4 hours) | XBP1 splicing (read coverage) ([1]; 24 hours) | IRE1α autophosphorylation (IRE1α [2]) | pIC50 (IRE1α*; IRE1α kinase inhibition, read-out: IC50 IRE1a) | IRE1α autophosphorylation (IRE1α [3]) | pKi (IRE1α*; read-out: Inhibition of IRE1α*'s kinase activity, Ki)
O=S(=O)(CC(F)(F)F)Nc1ccc(Oc2ncccc2-c2ccnc(N[C@H]3CCCNC3)n2)c2ccccc12 (stereo in doubt) [PAIR1, 2,2,2-trifluoro-N-(4-(3-(2-(piperidin-3-ylamino)pyrimidin-4-yl)pyridin-2-yloxy)naphthalen-1-yl)ethanesulfonamide] | blocked | antagonized | blocked | largely blunted | preserved | preserved | equipotently block ER stress-mediated IRE1α autophosphorylation | 7.60 | equivalently block the autophosphorylation | –
O=S(=O)(CCC(F)(F)F)Nc1ccc(Oc2ncccc2-c2ccnc(NC3CCCNC3)n2)c2ccccc12 (stereo not drawn) [KIRA9, 3,3,3-trifluoro-N-(4-(3-(2-(piperidin-3-ylamino)pyrimidin-4-yl)pyridin-2-yloxy)naphthalen-1-yl)propane-1-sulfonamide] | blocked | antagonized | blocked | largely blunted | blocked | partially decreased | equipotently block ER stress-mediated IRE1α autophosphorylation | – | equivalently block the autophosphorylation | 6.80
